Values joined by “and” are separate entries in the source; they are usually repeats but may differ in a detail not shown here. Equal entries are not always repeated. “Also recorded” adds a separate entry of the source.
Key:
[1] = Organ distribution after i.v. administration; assay type: in vivo, mice
L1210 leukemia = test: Survival of mice inoculated IP with L1210 leukemia; assay type: in vivo, mouse (B6D2Fl); conditions: for % T/C: 24 h after inoculation
Protocol: In Vivo Protocol. B6D2Fl mice (Charles River Laboratories, Wilmington, Mass., U.S.A.) were injected with […] L1210 leukemia cells via the intraperitoneal route. A single intraperitoneal treatment with ELs, CPT, L-CPT, ELs +CPT was administered 24 hours after tumor inoculation. Five animals were used in each group except for the control group which consisted of 7 untreated mice.
Statistical Considerations. Animal survival data was plotted using the method described by Kaplan and Meier (Kaplan and Meier, 1958):
Because LC-CPT appeared to have improved potency compared to free CPT and LC-CPT caused early death at the highest doses, mice inoculated with L1210 leukemia were treated with doses of 30 to 60 mg/kg free CPT or 10 to 20 mg/kg of LC-CPT (Table 6). […] One animal treated with 15 mg/kg free CPT plus lipid survived 50 days.

KB cells = test: MTT cytotoxicity, KB cells; assay type: cell-based, human
Protocol: (§1) Cell Lines. MDA-Panc3 cells(pancreas carcinoma), DiFi cells (colon carcinoma), and KB cells (squamous carcinoma) were used for in vitro data.
(§2) Cytotoxicity Assay. 8,000 cells/well in 135 ul of Dubelco's MEM with 10% fetal bovine serum (FBS) was added to 96-well culture plates. The plates were incubated for 14 h at 37° in the presence of 5% CO2. 15 µL of CPT, liposomal CPT (L-CPT), and empty liposomes (ELs) with CPT were added in concentrations of […] CPT. Lipids were added to each sample (5-25:1 lipid:drug weight ratio). The cells were incubated in the presence of drug for 24 to 120 h. After […] of 5 mg/ml MTT in PBS was added to the samples, the cells were incubated at 37° for 2 h. 100 µL of lysis buffer (50 ml DMF, 20 gm SDS, to total volume 100 ml with water, adjusted to pH 4.7 with NaOH) was added to each well. Plates were incubated for 14h at 37°, then read at 570 nm in a kinetic microplate reader. A dose of 0.1 M blank lipid was used as a control for 100% survival.
(§3) LC-CPT consisting of 12.5:1 DO-NGPE:CPT was used for in vitro assays of cytotoxicity. Lethal cellular injury induced by CPT requires prolonged exposure, cytotoxicity of L-CPT and controls were determined at 24, 72, and 120 hr intervals of continuous drug exposure.

DIFI cells = test: MTT cytotoxicity, DIFI cells; assay type: cell-based, human
Protocol: as §1, §2, §3

Solubility of CPT = assay type: physicochemical
From the text: Some lipophilic drugs such as taxol and taxotere can be solubilized by mild detergents, surfactants and alcohol- containing solutions; however, no similar vehicle has been identified for CPT lactone. […] Solutions containing chloroform and methanol can solubilize CPT, but are too toxic for clinically relevant studies.

MDA-Panc3 cells = test: MTT cytotoxicity, MDA-Panc3 cells; assay type: cell-based, human; conditions: 24-120 h
Protocol: as §1, §2, §3

[2] = it has been shown; cited from earlier work
P388 leukemia = test: Survival of mice inoculated IP with P388 leukemia; assay type: in vivo, mouse (B6D2Fl); conditions: for long-term survivors, percent: FIG. 5b; for % T/C: 24 h after inoculation
[3] = Lipids screened for complexation with CPT (fluorescent microscopy; % bound); assay type: physicochemical
From the text: In order to prepare LC-CPT (a liposomal preparation containing CPT within spherical lipid vesicles) various individual lipids were screened for complexation with CPT. […] CPT crystals and lipid/CPT complexes of >0.4 microns can be visualized under a fluorescent microscope (since CPT fluoresces due to its rigid ring structure). […] Therefore, the better a lipid complexes with CPT the less CPT crystals are formed, and the more lipid/CPT complexes are formed.
Drug/lipid Complex Preparation. CPT was mixed in ratios of from 2:1 to 25:1 w/w lipid:drug in chloroform-methanol (8:1). For studies where CPT was radiolabeled, approximately 0.02 uCi/ml [^3 H] CPT was added to the preparation. Trace quantities of ^14 C labeled cholesterol was added to samples requiring lipid labeling. For small samples, the lipids were dried in 12×75 mm culture tubes under a stream of nitrogen gas. For large samples, a rotavapor (Buchi RE140, Switzerland) was used to dry lipids in a 100 to 1000 ml round bottom flasks. […] For liposomal CPT 0.9% Nace was used. Preparations were screened for lipid entrapment by light and fluorescent microscopy (Nikon Labophot-2, Japan). […]
Lipids of varying carbon chain length, charge, and saturation, alone or in different combinations, were empirically screened for their ability to form liposomes incorporating CPT by fluorescent microscopy.

[4] = Chromatographic evaluation of CPT in the liposome fraction; assay type: physicochemical; conditions: lipid used alone
Protocol: Chromatography. A 30 cm agarose 0.5M column is used to separate liposome-bound drug from free CPT. PBS is used as the mobile phase for all preparations. Twenty samples were collected in 3 mL aliquots for a total of 60 mLs. Fluorescence and scintigraphy were used to detect encapsulated and free drug. Fluorimetry. Aliquots of 20 μl from each collection tube were transferred to cuvets containing 2 ml methanol. Fluorimetry was performed as described by Hart et al. (Hart et al., 1969). Fluorescence was measured at an excitation wavelength of 370 nm and emission wavelength of 434 nm (Perkin-Elmer MPF44A, Norwalk, Conn., U.S.A.). Two ml of ethanol was used as a control for machine calibration.
Chromatographic evaluation confirmed that <5% of CPT was incorporated in the liposome fraction of the preparation, the rest presumably being solubilized or in small particles not detectable by fluorescence microscopy.
(§4) These observation led the present inventors to other negatively charged lipids. […] Chromatographic evaluation of these preparations confirmed again that <5% of CPT eluted with the liposome fraction, the rest of the drug eluting later in a large number of consecutive fractions. By differential centrifugation, the lipid-binding efficiency of cardiolipin was about 67% and that of DO-NGPE 97%. DO-NGPE-CPT was, therefore, selected for further biological and pharmacological studies.

[5] = system: KB, MDA-Panc3, and DIFI cell lines; test: MTT cytotoxicity, KB, MDA-Panc3 and DIFI cell lines taken together; assay type: cell-based, human
Protocol: as §1, §2, §3

[6] = Lipid-binding efficiency by differential centrifugation; assay type: physicochemical
Protocol: Determination of Entrapment Efficiency.
A modification of the Ficoll flotation method for separating entrapped from free drug was used (Fraley et al.). […] samples were added to 12×75 mm culture tubes. One ml of 30% Ficoll was layered on the liposome preparation, then one ml of PBS was layered on top of the Ficoll. The tube was spun for 30 min at 3400 rpm in Sorvall GS2-B swing rotor. The percent entrapment was calculated with the formula: [formula]
as §4

CC[C@@]1(O)C(=O)OCc2c1cc1n(c2=O)Cc2cc3ccccc3nc2-1 [CPT, Camptothecin]
GI Tract level ([1]; 6 hrs, i.v. 10 mg/kg CPT): 2.562 ± 0.515 μg/ml or μg/mg dry tissue | Heart level ([1]; 6 hrs, i.v. 10 mg/kg CPT): 1.458 ± 0.555 μg/ml or μg/mg dry tissue | Kidney level ([1]; 6 hrs, i.v. 10 mg/kg CPT): 0.443 ± 0.164 μg/ml or μg/mg dry tissue | Liver level ([1]; 6 hrs, i.v. 10 mg/kg CPT): 2.077 ± 0.402 μg/ml or μg/mg dry tissue | Lung level ([1]; 6 hrs, i.v. 10 mg/kg CPT): 38.217 ± 3.061 μg/ml or μg/mg dry tissue | GI Tract level ([1]; 24 hrs, i.v. 10 mg/kg CPT): 0.492 ± 0.148 μg/ml or μg/mg dry tissue | Heart level ([1]; 24 hrs, i.v. 10 mg/kg CPT): 0.228 ± 0.092 μg/ml or μg/mg dry tissue | Kidney level ([1]; 24 hrs, i.v. 10 mg/kg CPT): 0.539 ± 0.428 μg/ml or μg/mg dry tissue | Liver level ([1]; 24 hrs, i.v. 10 mg/kg CPT): 0.429 ± 0.124 μg/ml or μg/mg dry tissue | Lung level ([1]; 24 hrs, i.v. 10 mg/kg CPT): 12.276 ± 5.363 μg/ml or μg/mg dry tissue | drug level in the lungs, free CPT relative to LC-CPT ([1]; i.v.): about 180 -fold | biodistribution / clearance (in words) ([1]; i.v., mice, listed as free CPT): rapidly cleared from the blood; also recorded: Heart and kidney levels of free CPT were higher than those of LC-CPT | concentration at 6 h ([1]; mouse, in vivo, iv, 6 hrs, i.v. 10 mg/kg CPT, read-out: Blood level): 69 ± 39 ng/mL | concentration at 24 h ([1]; mouse, in vivo, iv, 24 hrs, i.v. 10 mg/kg CPT, read-out: Blood level): 8 ± 12 ng/mL | antitumor activity / survival, L1210 (in words) (L1210 leukemia): inactive | 50-day survivors (L1210 leukemia; 30 mg/kg CPT): 0 | % T/C (L1210 leukemia; 30 mg/kg CPT): 85% | 50-day survivors (L1210 leukemia; 45 mg/kg CPT): 0 | % T/C (L1210 leukemia; 45 mg/kg CPT): 85% | 50-day survivors (L1210 leukemia; 60 mg/kg CPT): 0 | % T/C (L1210 leukemia; 60 mg/kg CPT): 92% | cytotoxicity (in words) (KB cells; 24 h): somewhat more sensitive to CPT at 24 h than DIFI cells | cellular viability (KB cells; 120 h): approximately 40% | cytotoxicity (in words) (DIFI cells; 24-120 h): significantly more toxic to cells at a concentration of 1M compared to 0.1M | cellular viability (DIFI cells; 120 h): approximately 40% | aqueous solubility (in words) (Solubility of CPT): poor aqueous solubility | solubility in DMSO, Tween-20, cremophor, and methanol (in words) (Solubility of CPT; CPT lactone): crystallization and precipitation of drug occurs | cytotoxicity (in words) (MDA-Panc3 cells): modestly sensitive; also recorded: significantly more toxic to cells at a concentration of 1 μmol compared to 0.1 μmol; also recorded: somewhat more sensitive to CPT at 24 h than DIFI cells | activity of closed-lactone form relative to sodium salt [2]: 10 fold | long-term survivors, percent (P388 leukemia; IP, 20 mg/Kg): 20% | long-term survivors, percent (P388 leukemia; IP, 40 mg/Kg): 60% | treatment-related deaths / toxicity at 40 mg/kg (P388 leukemia; IP, 40 mg/kg CPT): one treatment related death (day 8) | antitumor activity, P388 (in words) (P388 leukemia; P388, IP): No activity | 50-day survivors (P388 leukemia; P388, IP, 10 mg/kg CPT): none | % T/C (P388 leukemia; P388, IP, 10 mg/kg CPT): 121% | 50-day survivors (P388 leukemia; P388, IP, 20 mg/kg CPT): none | % T/C (P388 leukemia; P388, IP, 20 mg/kg CPT): 100% | 50-day survivors / long-term survivors (P388 leukemia; P388, IP, 40 mg/kg CPT, 40 mg/kg): 3 and 3/5 | %T/C, similar antitumor activity compared (P388 leukemia; P388, IP, dose not given): 207%

CCCCCCCC/C=C\CCCCCCCC(=O)OCC(COP(=O)(O)OCCNC(=O)CCCC(=O)O)OC(=O)CCCCCCC/C=C\CCCCCCCC (centres unmarked) [Dioleoyl-NGPE, dioleoyl-N-glutaryl-phosphatidyl ethanolamine]
Crystals ([3]; Table 1, lipid alone with CPT, fluorescent microscopy): no | interaction with CPT (in words) ([3]; listed as DO-NGPE): homogeneous and milky preparations devoid of drug crystals; also recorded: most favorable interaction | CPT incorporated in / eluted with the liposome fraction [4]: < 5% | antitumor activity in vitro (in words) [5]: does not appear to have any intrinsic antitumor activity and does not inhibit the effects of CPT | lipid-binding efficiency [6]: 97%
